According to PubChem BioAssay (NCI):
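Each compound was tested at five concentrations against cells in 96-well plates for 48 hours. Here, GI50 denotes the concentration required for 50% inhibition of growth. TGI denotes the concentration required for complete inhibition of growth.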

Assays:
Assay in all cases: NCI anticancer screen, dose series, 48 h
KM12 colon = system: KM12 colon
U251 CNS = system: U251 CNS
UACC-257 melanoma = system: UACC-257 melanoma
NCI-H522 lung = system: NCI-H522 lung
UO-31 renal = system: UO-31 renal
OVCAR-8 ovarian = system: OVCAR-8 ovarian
RXF 393 renal = system: RXF 393 renal
T-47D breast = system: T-47D breast
HS 578T breast = system: HS 578T breast
DU-145 prostate = system: DU-145 prostate

Molecule | TGI (KM12 colon) [µM] | TGI (U251 CNS) [µM] | TGI (UACC-257 melanoma) [µM] | TGI (NCI-H522 lung) [µM] | TGI (UO-31 renal) [µM] | TGI (OVCAR-8 ovarian) [µM] | TGI (RXF 393 renal) [µM] | TGI (T-47D breast) [µM] | TGI (HS 578T breast) [µM] | TGI (DU-145 prostate) [µM] | GI50 (T-47D breast) [µM] | GI50 (HS 578T breast) [µM] | GI50 (KM12 colon) [µM] | GI50 (DU-145 prostate) [µM] | GI50 (U251 CNS) [µM] | GI50 (UACC-257 melanoma) [µM] | GI50 (OVCAR-8 ovarian) [µM] | GI50 (NCI-H522 lung) [µM] | GI50 (RXF 393 renal) [µM]
O=c1cc(-c2ccccc2)[nH]c2c(F)ccc(F)c12 | > 100 | > 100 | > 100 | > 100 | > 100 | > 100 | > 100 | – | – | – | – | – | – | – | – | – | – | – | –
COc1ccc(C2=C(N)c3cc(OC)ccc3C2=O)cc1 | > 100 | > 100 | > 100 | > 100 | – | > 100 | – | > 100 | 69.9 | > 100 | – | – | – | – | – | – | – | – | –
Cc1cc(S(=O)(=O)Nc2n[nH]c(N)n2)c(S)cc1Cl | > 10 | > 10 | > 10 | > 10 | – | > 10 | > 10 | > 10 | > 10 | > 10 | – | – | – | – | – | – | – | – | –
COc1ccc(Nc2ccnc3cc(Cl)ccc23)cc1CN(CCCl)CCCl | 9.75 | > 100 | 5.96 | – | – | > 100 | – | > 100 | > 100 | 3.54 | 2.27 | 3.14 | 2.21 | 0.901 | 1.79 | 1.98 | 2.2 | – | –
Cc1cccc(-c2cc(=O)c3cc(C)cnc3[nH]2)c1 | 16.4 | > 100 | > 100 | 0.259 | > 100 | – | > 100 | > 100 | – | 13.3 | – | – | – | – | – | – | – | – | –
CC1CN=C(N(C(=O)Nc2ccccc2)C2CCCCC2)S1 (stereo not drawn) | 36.3 | 30.8 | 30.2 | – | 32.3 | 75 | – | 92.7 | 50 | 69.7 | – | – | – | – | – | – | – | – | –
NC(=O)c1nnc2c(F)cccc2c1N | > 100 | > 100 | > 100 | > 100 | > 100 | > 100 | – | > 100 | > 100 | > 100 | – | – | – | – | – | – | – | – | –
CC1C/C(=C\c2ccc(O)c(O)c2)C(=O)/C(=C/c2ccc(O)c(O)c2)C1 (stereo not drawn) | 20.9 | 18.1 | 28.7 | 3.58 | – | 48.7 | 14.4 | 27.8 | 24.9 | 20.8 | – | – | – | – | – | – | – | – | –
CN1CCN(C2CC(=O)c3c(Cl)sc(Cl)c32)CC1 (stereo not drawn) | 30.9 | 36 | > 61.5 | 13.3 | 17 | > 21.3 | – | > 45.9 | > 23.7 | 30.2 | – | – | – | – | – | – | – | – | –
CCOC(=O)N1c2c(c3ccccc3n2C(=O)OCC)C(=O)C(OC)N1C(=O)OCC (stereo not drawn) | 38.9 | 76.5 | > 100 | 41.2 | > 100 | > 100 | – | – | 73.3 | > 100 | – | – | – | – | – | – | – | – | –
CN(C)CC(C)(C)C(=O)/C=C/c1ccccc1 | 28.5 | 30.5 | 27.2 | 23 | 23 | > 100 | 24.5 | – | – | – | – | – | – | – | – | – | – | – | –
CC(=O)c1c2c(cc3c1CCC3)CCC2 | > 100 | > 100 | > 100 | > 100 | > 100 | > 100 | – | 46.8 | > 100 | > 100 | – | – | – | – | – | – | – | – | –
O=C1CSC(c2cc3cc(Br)ccc3nc2Cl)N1c1ccc(F)c(Cl)c1 (stereo not drawn) | > 50 | – | > 50 | > 50 | > 50 | > 50 | > 50 | > 50 | > 50 | > 50 | – | – | – | – | – | – | – | – | –
H-KIFKKFKTIIKKVWRIFGRF-NH2 | – | – | 9.58 | > 100 | – | > 100 | 5.19 | – | – | – | – | – | – | – | – | 2.85 | 3.28 | 2.34 | 2.09
C/C(=N/NC(=O)c1ccccc1Nc1ccccc1C(=O)N/N=C(\C)c1ccc(C)cc1)c1ccc(C)cc1 | > 100 | > 100 | > 100 | – | > 100 | > 100 | > 100 | > 100 | > 100 | > 100 | – | – | – | – | – | – | – | – | –
COc1ccc(C2CCc3c(cnc4nc(N)nc(N)c34)C2)cc1 (stereo not drawn) | > 100 | > 100 | > 100 | 44.9 | – | > 100 | 42.6 | 95.3 | > 100 | > 100 | – | – | – | – | – | – | – | – | –
N#CC(NNC(=O)c1c(Cl)c(Cl)c(Cl)c(Cl)c1-c1nc2ccc(C(=O)c3ccccc3)cc2[nH]1)c1cccc(Oc2ccccc2)c1 (stereo not drawn) | > 100 | > 100 | > 100 | – | > 100 | > 100 | 55.5 | 76.2 | – | > 100 | – | – | – | – | – | – | – | – | –
COC1OC(=O)C(OC)C(OC)C1OC (stereo not drawn) | > 100 | > 100 | > 100 | > 100 | > 100 | > 100 | – | > 100 | > 100 | > 100 | – | – | – | – | – | – | – | – | –
Cc1nc2ccccc2nc1N1CCCC1 | > 100 | > 100 | > 100 | > 100 | – | > 100 | > 100 | > 100 | > 100 | > 100 | – | – | – | – | – | – | – | – | –
Oc1[nH]c2ccccc2c1N=NC(=S)NCc1ccccn1 | 19.6 | 6.22 | 13.7 | 14.7 | 6.56 | 26.7 | – | 21.4 | 47.7 | 12.7 | – | – | – | – | – | – | – | – | –
CC(C)(C)C1=CC(O)(c2c3ccccc3c(C3(O)C=C(C(C)(C)C)C(=O)C(C(C)(C)C)=C3)c3ccccc23)C=C(C(C)(C)C)C1=O | > 100 | > 100 | > 100 | > 100 | > 100 | > 100 | – | > 100 | > 100 | > 100 | – | – | – | – | – | – | – | – | –
O=C1/C(=C/Cc2ccco2)N=C(c2ccccc2)N1c1nc2c(Cl)cc(Cl)cc2s1 | > 100 | 83.5 | > 100 | – | 72.8 | > 100 | 40.6 | 73.5 | 57.4 | > 100 | – | – | – | – | – | – | – | – | –
